From patent publication US20150224190A1, “Combination of a phosphoinositide 3-kinase inhibitor and an inhibitor of the IL-8/CXCR interaction” (priority 2012, published 2015)

How the values were obtained:
JAK2/STAT5 = JAK2/STAT5 phosphorylation in breast cancer cell lines (pJAK2 ELISA, pSTAT5 immunoblot); format: cell-based, human; settings: for JAK2 activation, starting at (time of treatment): in vitro, time after adding the compound
Description: MDA231, lung metastatic subline MDA231 LM2 (Minn et al., 2005) and SUM159 human breast cancer cells, as well as the Balb/c tumor-derived mammary cancer lines 4T-1 and 168FARN (Aslakson and Miller, 1992), were propagated as previously described. All other cell lines were obtained from and were cultured according to the protocols of ATCC. For treatment with inhibitors, cells were synchronized without serum overnight and then supplemented with culture medium containing the inhibitor(s). For experiments with doxycycline-inducible shRNAs, 500 ng/ml of doxycycline (Sigma) was added to the medium and experiments performed 48 h later. Cell viability assays, cell cycle and cell death measurements were performed at 0.5% FCS in order to avoid masking effects of growth factors present under full-serum conditions.
Cells for Western Blotting and ELISA were lysed with RIPA buffer. Xenograft lysates were prepared by lysing kryo-homogenized tumor powder in RIPA buffer (50 mM Tris-HCl pH 8, 150 mM NaCl, 1% NP-40, 0.5% sodium deoxycholate, 0.1% SDS. RIPA was supplemented with 1× protease inhibitor cocktail (Complete Mini, Roche), 0.2 mmol/L sodium-vanadate, 20 mM sodium fluoride and 1 mmol/L phenylmethylsulfonyl fluoride. For IRS-1 immunoprecipitation, cell lysates containing 500-1000 μg of protein were incubated with 1 μg of antibody and 20-50 μl of protein A-Sepharose beads (Zymed Laboratories, Inc., South San Francisco, Calif.) overnight at 4° C. Immunoprecipitates or whole cell lysates (30-80 μg) were subjected to SDS-PAGE, transferred to PVDF membranes (Immobilon-P, Millipore) and blocked for 1 hr at room temperature with 5% milk in PBS-0.1% Tween 20. Membranes were then incubated overnight with antibodies as indicated and exposed to secondary HRP-coupled anti-mouse or -rabbit antibody at 1:5-10,000 for 1 h at room temperature. Proteins were visualized using an ECL kit (Amersham) or an enhanced chemiluminescence detection system (Pierce Biotechnology). In each of the studies presented, the results shown are typical of at least three independent experiments. The following antibodies were used: anti-JAK2 (Cell Signaling), anti-JAK1 (Cell Signaling), anti-pSTAT5 (Tyr694, Cell Signaling), anti-STAT5 (STAT5A&B, Cell Signaling), anti-STAT3 (Cell Signaling), anti-pSTAT3 (Tyr705, Cell Signaling), anti-AKT pan (Cell Signaling), anti-pAKT (Thr308 and Ser473, Cell Signaling), anti-ERK2 (Santa Cruz), anti-S6 (Cell Signaling), anti-pS6 (Ser235/236, Cell Signaling), anti-PARP (Cell Signaling), anti-MCL1 (Cell Signaling), anti-BIM (EL, L and S isoforms, Cell Signaling), anti-pIGF1R/plnsR (Invitrogen), anti-IGF1Rbeta (Cell Signaling), anti-InsRbeta (Santa Cruz), anti-IRS1 (Upstate), anti-plRS1 (Tyr612, Calbiochem).
For assessing pJAK2 levels, an ELISA assay (Tyr1007/1008, Invitrogen) was applied because of cross-reactivity of all pJAK2 antibodies tested. Interleukin-8 levels in RIPA lysates, cell culture supernatants and mouse tail vein blood plasma were measured by ELISA, as well (Biolegend). […]
The present inventors applied single doses of COMPOUND A, a dual PI3K and mTOR inhibitor, and analyzed target inhibition and potential signaling pathway crosstalks after 2, 4, 8 and 20 h hours of treatment. […] While RAD001 readily activated JAK2 starting at 4 hours of treatment, they observed a later response with BKM120 treatment starting at 8 hours after adding the compound. […]

MDA231 LM2 cells = test: Matrigel Boyden chamber invasion assay; format: cell-based, human; settings: 300 nM BEZ235, 350 nM NVP-BSK805, CXCR1 blocking antibody; 48 h; normalized to cell number
Description: FIG. 2. Blockade of CXCR1 reduces invasion and has minor effects on primary tumor growth (A) NVP-BSK805 and CXCR1 blockade but not BEZ235 decrease invasion. Bar graphs showing relative invasion of MDA231 LM2 cells seeded on Matrigel coated Boyden invasion chambers and treated with 300 nM BEZ235, 350 nM NVP-BSK805, a JKA2 inhibitor, and/or CXCR1 blocking antibody. Invasion was assessed after 48 h, data represent relative invasion values normalized to cell number and are means±SEM (n=4, *P<0.05).
Cytokine stimulation of cells was performed for 30 min in medium with 0.5% FCS supplemented with cytokines at 10 ng/ml, except for EPO at 10 U/ml. Antibody-blocking experiments were performed by adding anti-CXCR1 (R&D, MAB330, 1 μg/ml), anti-CXCR2 (R&D, MAB331, 2.5 μg/ml) or a mouse IgG antibody (R&D, 1 μg/ml) to the medium 45 min prior to lysis of the cells. Cell viability was measured using the Cell Proliferation Reagent WST-1 (Roche). Colony formation assays were performed by seeding 1000 cells/well in 6-well plates and staining single colonies after 7-14 days with 0.2% crystal violet in PBS/4% formalin. […] The number of invading cells in each treatment condition was counted 48 h after seeding by microscopy at 40× (using the mean of 4 microscopic fields) and normalized to cell number.

| Compound | JAK2 activation, starting at (time of treatment) (JAK2/STAT5) [h] | upregulation of pSTAT5 by BEZ235 (JAK2/STAT5; JAK2 inhibitor together with BEZ235) | relative invasion (MDA231 LM2 cells) |
| --- | --- | --- | --- |
| Nc1cc(C(F)(F)F)c(-c2cc(N3CCOCC3)nc(N3CCOCC3)n2)cn1 [COMPOUND C, 5-(2,6-di-morpholin-4-yl-pyrimidin-4-yl)-4-trifluoromethyl-pyridin-2-ylamine] | 8 |  |  |
| Fc1cc(-c2cccc3ncc(-c4cnn(C5CCNCC5)c4)nc23)cc(F)c1CN1CCOCC1 [NVP-BSK805, reference compound] |  | counteracted | decrease |
| CO[C@H]1C[C@@H]2CC[C@@H](C)[C@@](O)(O2)C(=O)C(=O)N2CCCC[C@H]2C(=O)O[C@H]([C@H](C)C[C@@H]2CC[C@@H](OCCO)[C@H](OC)C2)CC(=O)[C@H](C)/C=C(\C)[C@@H](O)[C@@H](OC)C(=O)[C@H](C)C[C@H](C)/C=C/C=C/C=C/1C [RAD001, reference compound] | 4 |  |  |
